Source: BindingDB's records for doi:10.1111/cbdd.12572 (Depaul University, 2015)

molecular target: T1, Caspase-1 (Homo sapiens, UniProt P29466); test: Inhibition Assay; details: pH 7.5; 25 °C
T1 sequence (P29466 whole entry): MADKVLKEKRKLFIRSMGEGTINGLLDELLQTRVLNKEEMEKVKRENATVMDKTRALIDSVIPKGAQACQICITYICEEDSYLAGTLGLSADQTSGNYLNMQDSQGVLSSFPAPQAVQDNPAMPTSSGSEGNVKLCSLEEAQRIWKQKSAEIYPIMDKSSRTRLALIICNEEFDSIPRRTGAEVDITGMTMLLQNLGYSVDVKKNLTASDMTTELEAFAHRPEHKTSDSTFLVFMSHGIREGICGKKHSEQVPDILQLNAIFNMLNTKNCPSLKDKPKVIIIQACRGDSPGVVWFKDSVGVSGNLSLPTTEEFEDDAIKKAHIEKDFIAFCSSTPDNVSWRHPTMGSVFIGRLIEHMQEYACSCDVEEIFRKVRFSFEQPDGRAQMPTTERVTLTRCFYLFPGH
Method: All assays were performed at 100 µL total volume in triplicate and monitored for 60 minutes at room temperature in a 96-well plate format in HEPES Buffer (100 mM HEPES, 100 mM NaCl, 0.1% CHAPS, 10% sucrose, pH 7.5) on a BioTek Synergy H1 plate reader. Fluorescence was measured with excitation and emission wavelengths of 380 nm and 460 nm, respectively. Caspase-1 was activated with 100 µM DTT for 30 minutes and held constant at 5 nM for all assays. WEHD-AMC was used as a substrate for all assays at 10 µM unless otherwise specified and reactions were monitored immediately upon addition to caspase-1.

Going from N#C/C(=C\c1ccc(O)c(O)c1)C(=O)OC/C=C/c1ccccc1 to CCCCCCCCOC(=O)/C=C/c1ccc(O)c(O)c1 [Octyl (2E)‐3‐(3,4‐dihydroxyphenyl)prop‐2‐enoate (E6)], the IC50 falls from 2230 nM to 840 nM (2.7-fold). The second is the more potent here.

Compared with CCCCCCCCCCCCCCCC(=O)OC[C@H](O)[C@H]1OC(=O)C(O)=C1O [Ascorbyl Palmitate], CCCCCC#CCC#CCC#CCC#CCCCC(=O)O is higher in IC50: 600 nM for the first, > 10000 nM for the second.

Cc1c(C)c2c(c(C)c1O)CC[C@](C)(CN1CCN(c3cc(N4CCCC4)nc(N4CCCC4)n3)CC1)O2 [U83836E (B8)] and C[C@]12C=CC(=O)C=C1CC[C@@H]1C2=CC[C@]2(C)[C@@H](C(=O)CN3CCN(c4cc(N5CCCC5)nc(N5CCCC5)n4)CC3)CC[C@@H]12 [U74389G (B9)] are within 1.5-fold of each other in IC50: 167 nM for the first, 174 nM for the second.

Compared with CC(Cc1ccc(O)c(O)c1)C(C)Cc1ccc(O)c(O)c1 (stereo not drawn) [LOX inhibitor, N/A], Cc1cc2c(C(C)C)c(O)c(O)c(C=O)c2c(O)c1-c1c(C)cc2c(C(C)C)c(O)c(O)c(C=O)c2c1O [Tash 1] is lower in IC50: > 10000 nM for the first, 1230 nM for the second. The second is the more potent here.

Going from CC/C=C\C/C=C\C/C=C\C/C=C\C/C=C\C/C=C\CCC(=O)O [all-cis-docosa-4,7,10,13,16,19-hexaenoic acid] to CCN(CC)C(=S)SSC(=S)N(CC)CC [1,1',1'',1'''-[disulfanediylbis(carbonothioylnitrilo)]tetraethane], the IC50 falls from 6760 nM to 1800 nM (3.8-fold). The second is the more potent here.

Going from CC1=CC(=O)C(C(C)C)=CC1=O [2-methyl-5-(propan-2-yl)cyclohexa-2,5-diene-1,4-dione (F8)] to CC1(C)CCC2=C(O1)c1ccccc1C(=O)C2=O [R115 (Reactive Blue 2)], the IC50 rises from 1080 nM to 1690 nM (1.6-fold).

With O=c1c2ccccc2[se]n1-c1ccccc1 [2-Phenyl-benzo[d]isoselenazol-3-one] the IC50 was 4040 nM.
